{"source": "patent US20200268829A1", "about": "“METHODS AND COMPOSITIONS FOR INHIBITING METASTASES OF AN ENDOTHELIN B RECEPTOR EXPRESSING CANCER” (ENB Therapeutics, Inc., priority 2020, published 2020)", "key": {"ETBR": {"target": "T1, ETBR (Homo sapiens, UniProt P24530)", "T1 sequence (P24530 27-442)": "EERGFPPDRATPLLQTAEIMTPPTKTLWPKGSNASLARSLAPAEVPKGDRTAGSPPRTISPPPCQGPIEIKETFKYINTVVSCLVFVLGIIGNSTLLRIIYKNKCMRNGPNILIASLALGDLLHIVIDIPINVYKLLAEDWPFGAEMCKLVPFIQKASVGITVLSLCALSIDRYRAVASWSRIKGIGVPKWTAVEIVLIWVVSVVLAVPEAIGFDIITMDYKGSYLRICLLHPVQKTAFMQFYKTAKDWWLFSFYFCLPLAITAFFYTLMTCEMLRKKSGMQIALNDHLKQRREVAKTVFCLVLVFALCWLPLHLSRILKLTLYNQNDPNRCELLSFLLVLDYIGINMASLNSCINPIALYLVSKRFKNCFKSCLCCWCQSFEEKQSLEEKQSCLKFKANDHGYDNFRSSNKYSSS", "test": "ETBR antagonist potency (IC50, Ki); no method given", "format": "binding", "conditions": "for IC50: for BQ788 printed with 'potent inhibitor of ETBR-related melanoma cell growth'"}, "[1]": {"system": "melanoma cell lines overexpressing ETBR (brain metastases)", "test": "Mouse melanoma brain metastasis model, xenografts of melanoma cell lines overexpressing ETBR", "format": "in vivo, mice", "conditions": "60 mg/kg/day", "procedure": "FIGS. 5A, 5B, 5C, 5D, and 5E. ETBR antagonist inhibits melanoma brain metastasis in mice. […] In this study, lentiviral vectors were used to overexpress ETBR in melanoma cell lines, which were in turn used to implant xenografts in mice.\nA192621 was administered at a dose of 60 mg/kg/day using a mouse melanoma model. […] In this study, lentiviral vectors were used to overexpress ETBR in melanoma cell lines, which were in turn used to implant xenografts in mice. In this study, lentiviral vectors were used to overexpress ETBR in melanoma cell lines, which were in turn used to implant xenografts in mice."}, "[2]": {"system": "SKMEL28 human melanoma cells", "test": "SKMEL28 human melanoma xenograft in mice: tumor weight, lung metastases, apoptosis", "format": "in vivo", "procedure": "Mice were implanted with 1×10^6 SKMEL28 human melanoma cells. Tumors were established for 10 days until palpable then 120 ng (˜60 ug/kg) BQ788 dissolved in DMSO was injected IP 3×per week×6 weeks. Mice were then sacrificed and lungs harvested and tumors weighed. A 75% reduction in tumor weight was observed."}, "[3]": {"test": "Body weight under ascending intranasal BQ788 doses over 42 days", "format": "in vivo, athymic nude mice", "conditions": "BQ788 alone, intranasally in 20% DMSO, ascending doses over 42 days", "procedure": "FIG. 9. ETAR antagonist and Niacinamide mitigate weight loss from BQ788. Six week old athymic nude mice were administered the ETBR antagonist BQ788 intranasally in 20% DMSO at the indicated ascending doses over a period of 42 days. One group was additionally administered the ETAR antagonist Macitentan orally at a dose of 5 mg/kg daily. The drinking water of these mice was supplemented with the B vitamin niacinamide at a concentration of 0.3 mg/mL. […] Co-administration of the ETAR antagonist Macitentan with niacinamide supplementation mitigated this weight loss. […] Co-administration of ETAR antagonists and niacinamide with ETBR antagonists mitigated the adverse effects of ETBR antagonists when administered for therapeutic purposes.\nSix week old athymic nude mice (n=3 per group) were administered the ETBR antagonist BQ788 intranasally in 20% DMSO at the indicated ascending doses over a period of 42 days. One group was additionally administered the ETAR antagonist Macitentan orally at a dose of 5 mg/kg daily. The drinking water of these mice was supplemented with the B vitamin niacinamide at a concentration of 0.3 mg/mL. […] Co-administration of the ETAR antagonist Macitentan with niacinamide supplementation mitigated this weight loss. […]"}, "[4]": {"system": "A375 human melanoma cells", "test": "Subcutaneous A375 human melanoma xenograft", "format": "in vivo, Nu/J nude mice", "conditions": "A375 sc xenograft; Dabrafenib 100 mg/Kg PO daily, alone or with BQ788 600 ng IP TIW; p<0.05", "procedure": "FIG. 7. BQ788 synergizes with Dabrafenib in vivo. A375 human melanoma cells were implanted subcutaneously into the rear flank of Nu/J nude mice and allowed to grow to 150 mm3-200 mm3 prior to randomization and initiation of treatment. The mice received the following treatments: (1) vehicle (n=8), (2) Dabrafenib 100 mg/Kg PO daily (n=5), and (3) Dabrafenib+BQ788 600 ng IP TIW (n=5).\nA375 human melanoma cells (3×10^6) were implanted subcutaneously into the rear flank of Nu/J nude mice and allowed to grow to 150 mm3-200 mm3 prior to randomization and initiation of treatment. The treatment groups were as follows: (1) vehicle (n=8), Dabrafenib 100 mg/Kg PO daily (n=5), (2) Dabrafenib+BQ788 600 ng IP 3×per week (n=5)."}}, "note": "“Also recorded” adds a separate entry of the source.", "data": [{"compound": "CCCOc1ccc([C@H]2[C@H](C(=O)O)[C@@H](c3ccc4c(c3)OCO4)CN2CC(=O)Nc2c(CC)cccc2CC)cc1", "note": "[A192621, (2R,3R,4S)-4-(1,3-benzodioxol-5-yl)-1-[2-(2,6-diethylanilino)-2-oxoethyl]-2-(4-propoxyphenyl)pyrrolidine-3-carboxylic acid]", "values": [{"measurement": "Ki", "setting": "ETBR", "result": 8.8, "unit": "nM"}, {"measurement": "IC50", "setting": "ETBR", "result": 4.5, "unit": "nM"}, {"measurement": "CNS melanoma tumors", "setting": "[1]", "result": "shrinks CNS melanoma tumors"}, {"measurement": "brain melanoma metastases", "setting": "[1]", "result": "shrinks brain melanoma metastases"}, {"measurement": "survival", "setting": "[1]", "result": "increases survival"}]}, {"compound": "CCCC[C@@H](NC(=O)[C@@H](Cc1cn(C(=O)OC)c2ccccc12)NC(=O)[C@H](CC(C)(C)C)NC(=O)N1[C@H](C)CCC[C@@H]1C)C(=O)O", "note": "[BQ788]", "values": [{"measurement": "reduction in tumor weight", "setting": "[2]; SKMEL28 xenograft mice, 120 ng (~60 ug/kg) BQ788 in DMSO IP 3x per week x 6 weeks", "result": 75, "unit": "%"}, {"measurement": "clearance of lung metastases", "setting": "[2]; SKMEL28 xenograft mice, 120 ng (~60 ug/kg) BQ788 in DMSO IP 3x per week x 6 weeks, vs control mice", "result": "> 95", "unit": "%"}, {"measurement": "apoptosis in melanoma tumor cells", "setting": "[2]; melanoma tumor cells", "result": "induces apoptosis"}, {"measurement": "average weight loss relative to baseline body weight by the end of the study", "setting": "[3]", "result": 5, "unit": "%"}, {"measurement": "Ki", "setting": "ETBR", "result": 17.8, "unit": "nM"}, {"measurement": "IC50", "setting": "ETBR", "result": 1.2, "unit": "nM"}]}, {"compound": "CC(C)(C)c1nc(-c2cccc(NS(=O)(=O)c3c(F)cccc3F)c2F)c(-c2ccnc(N)n2)s1", "note": "[Dabrafenib]", "values": [{"measurement": "tumor growth", "setting": "[4]", "result": "retarded the growth of tumors; also recorded: retarded tumor growth"}]}]}
